{"source": "ChEMBL document CHEMBL4834480", "about": "“Discovery of 3,5-Dimethyl-4-Sulfonyl-1H-Pyrrole-Based Myeloid Cell Leukemia 1 Inhibitors with High Affinity, Selectivity, and Oral Bioavailability” (J Med Chem, 2021)", "key": {"Bcl-2-like protein 2": {"molecular_target": "T1, Bcl-2-like protein 2 (Homo sapiens, UniProt Q92843)", "T1 sequence (Q92843 whole entry)": "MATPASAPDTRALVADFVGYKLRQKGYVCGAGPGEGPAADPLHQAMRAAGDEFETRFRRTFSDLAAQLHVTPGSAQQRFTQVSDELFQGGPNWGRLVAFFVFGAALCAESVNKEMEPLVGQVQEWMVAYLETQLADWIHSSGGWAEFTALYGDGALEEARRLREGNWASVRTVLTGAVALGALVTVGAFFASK", "test": "Binding affinity to human partial length BCLW (M1 to R171 residues) expressed in bacterial expression system by BCL2SCAN assay"}, "[1]": {"test": "Permeability of the compound at pH 7.4 measured after 4 hrs by PAMPA assay", "assay_type": "ADME", "conditions": "read-out: permeability"}, "[2]": {"test": "Water solubility of the compound", "assay_type": "physicochemical"}, "[3]": {"molecular_target": "T2, Apoptosis regulator Bcl-2 (Homo sapiens, UniProt P10415)", "T2 sequence (P10415 whole entry, the tested form may be a part)": "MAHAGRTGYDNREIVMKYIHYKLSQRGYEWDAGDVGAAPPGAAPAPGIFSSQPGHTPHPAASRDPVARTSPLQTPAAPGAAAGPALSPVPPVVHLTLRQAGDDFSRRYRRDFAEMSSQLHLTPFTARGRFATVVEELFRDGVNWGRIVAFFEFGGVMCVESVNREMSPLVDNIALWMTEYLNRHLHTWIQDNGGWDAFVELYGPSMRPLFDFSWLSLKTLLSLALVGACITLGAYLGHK", "test": "Inhibition of FITC-labeled Bak BH3 peptide binding to GST-tagged BCL2 (1 to 205 residues) (unknown origin) expressed in Escherichia coli BL21 (DE3) at 10 uM incubated for 30 mins fluorescence polarization-based competitive binding assay relative to control"}, "[4]": {"molecular_target": "T2, Apoptosis regulator Bcl-2", "test": "Binding affinity to human partial length BCL2 (M1 to D211 residues) expressed in bacterial expression system by BCL2SCAN assay"}, "Homo sapiens": {"organism": "Homo sapiens", "test": "Selectivity ratio of Kd for human partial length BCL2 (M1 to D211 residues) expressed in bacterial expression system to Kd for human partial length MCL1 ([…] to R329 residues) expressed in bacterial expression system"}, "NCI-H929 [5]": {"test_system": "NCI-H929", "test": "Antiproliferative activity against human NCI-H929 cells assessed as decrease in cell viability measured after 72 hrs by MTT assay", "assay_type": "functional, cell-based", "conditions": "NCI-H929, 72 h"}, "MV4-11 [6]": {"test_system": "MV4-11", "test": "Antiproliferative activity against human MV4-11 cells assessed as decrease in cell viability measured after 72 hrs by MTT assay", "assay_type": "functional, cell-based", "conditions": "MV4-11, 72 h"}, "NCI-H23": {"test_system": "NCI-H23", "test": "Antiproliferative activity against human NCI-H23 cells assessed as decrease in cell viability measured after 72 hrs by MTT assay", "assay_type": "functional, cell-based", "conditions": "NCI-H23, 72 h"}, "[7]": {"molecular_target": "Induced myeloid leukemia cell differentiation protein Mcl-1 (Homo sapiens, UniProt Q07820)", "sequence (Q07820 whole entry)": "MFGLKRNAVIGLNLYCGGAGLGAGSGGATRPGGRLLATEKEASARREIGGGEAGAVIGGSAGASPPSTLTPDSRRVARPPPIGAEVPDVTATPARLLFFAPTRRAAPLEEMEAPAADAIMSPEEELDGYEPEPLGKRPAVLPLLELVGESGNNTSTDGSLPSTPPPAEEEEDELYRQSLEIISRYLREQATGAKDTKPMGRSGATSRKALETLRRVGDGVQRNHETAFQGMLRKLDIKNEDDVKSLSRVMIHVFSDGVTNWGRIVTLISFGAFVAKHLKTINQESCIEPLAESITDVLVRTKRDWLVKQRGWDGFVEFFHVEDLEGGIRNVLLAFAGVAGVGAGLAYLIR", "test": "Displacement of BAK from MCL1 in human NCI-H929 cells after 4 hrs by co-immunoprecipitation assay", "assay_type": "cell-based", "conditions": "dose 0.1-0.5 µM"}, "NCI-H929 [8]": {"test_system": "NCI-H929", "test": "Induction of apoptosis in human NCI-H929 cells measured after 48 hrs by annexinV-FITC/propidium iodide staining based flow cytometry analysis", "assay_type": "functional, cell-based", "conditions": "dose 1-5 µM"}, "NCI-H929 [9]": {"test_system": "NCI-H929", "test": "Induction of apoptosis in human NCI-H929 cells assessed as upregulation of cleaved PARP measured after 48 hrs by Western blot analysis", "assay_type": "functional, cell-based", "conditions": "dose microM <=5, time 48.0 hrs"}, "K562": {"test_system": "K562", "test": "Induction of apoptosis in human K562 cells assessed as upregulation of cleaved PARP up to 5 uM measured after 48 hrs by Western blot analysis", "assay_type": "functional, cell-based", "conditions": "dose microM <=5, time 48.0 hrs"}, "CYP1A2": {"molecular_target": "T3, CYP1A2 (Homo sapiens, UniProt P05177)", "T3 sequence (P05177 whole entry)": "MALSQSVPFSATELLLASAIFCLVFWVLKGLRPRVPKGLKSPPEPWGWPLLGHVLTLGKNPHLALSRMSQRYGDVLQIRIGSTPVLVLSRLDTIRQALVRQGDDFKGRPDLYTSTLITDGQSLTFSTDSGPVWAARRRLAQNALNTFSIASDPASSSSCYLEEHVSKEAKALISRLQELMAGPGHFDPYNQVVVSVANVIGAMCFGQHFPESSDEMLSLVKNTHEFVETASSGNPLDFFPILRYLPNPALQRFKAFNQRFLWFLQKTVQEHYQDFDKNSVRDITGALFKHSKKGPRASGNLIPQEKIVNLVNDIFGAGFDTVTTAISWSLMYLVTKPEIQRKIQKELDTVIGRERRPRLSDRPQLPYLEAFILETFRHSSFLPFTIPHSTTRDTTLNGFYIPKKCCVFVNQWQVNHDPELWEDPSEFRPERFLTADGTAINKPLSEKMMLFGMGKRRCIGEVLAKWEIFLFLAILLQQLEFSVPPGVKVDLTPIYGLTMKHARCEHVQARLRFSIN", "test": "Inhibition of CYP1A2 (unknown origin) at 10 uM preincubated for 5 min followed by NADPH addition and measured after 20 mins by LC-MS/MS analysis relative to control", "assay_type": "ADME", "conditions": "time 25 min"}, "CYP3A4": {"molecular_target": "CYP3A4 (Homo sapiens, UniProt P08684)", "sequence (P08684 whole entry)": "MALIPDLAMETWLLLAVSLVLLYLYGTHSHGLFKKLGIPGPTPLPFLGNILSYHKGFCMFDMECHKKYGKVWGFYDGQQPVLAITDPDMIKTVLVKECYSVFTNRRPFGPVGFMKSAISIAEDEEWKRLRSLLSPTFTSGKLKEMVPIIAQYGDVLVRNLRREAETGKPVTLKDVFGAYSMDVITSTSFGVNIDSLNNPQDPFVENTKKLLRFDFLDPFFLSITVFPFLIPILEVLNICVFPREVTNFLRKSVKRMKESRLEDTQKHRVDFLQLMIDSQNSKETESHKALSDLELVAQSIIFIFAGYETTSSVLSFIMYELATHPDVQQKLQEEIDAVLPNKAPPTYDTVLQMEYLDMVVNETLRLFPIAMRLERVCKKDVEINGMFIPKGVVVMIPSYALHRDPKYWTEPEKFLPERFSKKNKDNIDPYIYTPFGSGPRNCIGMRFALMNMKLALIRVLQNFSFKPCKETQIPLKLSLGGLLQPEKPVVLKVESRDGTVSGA", "test": "Inhibition of CYP3A4 (unknown origin) at 10 uM preincubated for 5 min followed by NADPH addition and measured after 20 mins by LC-MS/MS analysis relative to control", "assay_type": "ADME", "conditions": "time 25 min"}, "[10]": {"test": "Stability of the compound in mouse plasma assessed as parent compound remaining measured after 2 hrs by LC-MS/MS analysis", "assay_type": "ADME, cell-free", "conditions": "read-out: Stabilty"}, "[11]": {"test": "Intrinsic clearance in human liver microsomes", "assay_type": "ADME, Microsome", "conditions": "read-out: CLH"}, "[12]": {"test": "Stability in human liver microsomes assessed as parent compound remaining preincubated for 5 mins followed by NADPH addition and measured after 30 mins by LC-MS/MS analysis", "assay_type": "ADME, Microsome", "conditions": "time 35 min, read-out: Stabilty"}, "P-gp": {"molecular_target": "P-gp (Homo sapiens, UniProt P08183)", "sequence (P08183 whole entry)": "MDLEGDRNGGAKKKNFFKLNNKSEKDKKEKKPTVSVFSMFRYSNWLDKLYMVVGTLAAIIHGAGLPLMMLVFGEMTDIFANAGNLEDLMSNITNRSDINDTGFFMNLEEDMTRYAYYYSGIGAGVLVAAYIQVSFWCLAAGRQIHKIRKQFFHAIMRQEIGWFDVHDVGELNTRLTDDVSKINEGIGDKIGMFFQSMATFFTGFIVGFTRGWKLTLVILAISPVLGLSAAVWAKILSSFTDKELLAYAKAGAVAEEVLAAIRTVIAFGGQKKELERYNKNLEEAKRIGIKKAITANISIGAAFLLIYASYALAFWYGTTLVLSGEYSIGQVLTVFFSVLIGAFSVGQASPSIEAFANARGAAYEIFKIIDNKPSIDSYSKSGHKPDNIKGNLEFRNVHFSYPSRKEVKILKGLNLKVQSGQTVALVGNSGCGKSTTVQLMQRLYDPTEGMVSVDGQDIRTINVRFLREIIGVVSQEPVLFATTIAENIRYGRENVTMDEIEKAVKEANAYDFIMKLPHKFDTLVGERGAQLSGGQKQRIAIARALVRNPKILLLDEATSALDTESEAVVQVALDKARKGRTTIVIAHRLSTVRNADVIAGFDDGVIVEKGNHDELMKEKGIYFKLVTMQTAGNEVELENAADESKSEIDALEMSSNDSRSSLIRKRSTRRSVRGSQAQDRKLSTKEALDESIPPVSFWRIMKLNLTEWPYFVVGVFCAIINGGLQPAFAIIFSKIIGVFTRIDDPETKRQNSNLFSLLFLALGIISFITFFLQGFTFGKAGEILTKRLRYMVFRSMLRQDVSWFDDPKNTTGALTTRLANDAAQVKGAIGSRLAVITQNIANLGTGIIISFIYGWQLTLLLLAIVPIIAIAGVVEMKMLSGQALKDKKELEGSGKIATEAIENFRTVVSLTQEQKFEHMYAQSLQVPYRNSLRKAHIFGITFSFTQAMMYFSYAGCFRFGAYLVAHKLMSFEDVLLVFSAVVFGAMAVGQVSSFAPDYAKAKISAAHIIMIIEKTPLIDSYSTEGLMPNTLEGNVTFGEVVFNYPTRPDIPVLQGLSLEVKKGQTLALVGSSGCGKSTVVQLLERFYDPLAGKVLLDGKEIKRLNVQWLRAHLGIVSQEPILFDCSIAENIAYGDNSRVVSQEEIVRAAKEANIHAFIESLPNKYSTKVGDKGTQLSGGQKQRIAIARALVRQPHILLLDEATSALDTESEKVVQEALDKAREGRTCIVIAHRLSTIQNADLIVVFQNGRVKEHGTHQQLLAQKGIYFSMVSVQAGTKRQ", "test": "Substrate activity at P-gp in human Caco-2 cells assessed as permeability across apical to basolateral membrane by LC-MS/MS analysis", "assay_type": "ADME, cell-based", "conditions": "read-out: permeability"}, "[13]": {"molecular_target": "Voltage-gated inwardly rectifying potassium channel KCNH2 (Homo sapiens, UniProt Q12809)", "sequence (Q12809 whole entry)": "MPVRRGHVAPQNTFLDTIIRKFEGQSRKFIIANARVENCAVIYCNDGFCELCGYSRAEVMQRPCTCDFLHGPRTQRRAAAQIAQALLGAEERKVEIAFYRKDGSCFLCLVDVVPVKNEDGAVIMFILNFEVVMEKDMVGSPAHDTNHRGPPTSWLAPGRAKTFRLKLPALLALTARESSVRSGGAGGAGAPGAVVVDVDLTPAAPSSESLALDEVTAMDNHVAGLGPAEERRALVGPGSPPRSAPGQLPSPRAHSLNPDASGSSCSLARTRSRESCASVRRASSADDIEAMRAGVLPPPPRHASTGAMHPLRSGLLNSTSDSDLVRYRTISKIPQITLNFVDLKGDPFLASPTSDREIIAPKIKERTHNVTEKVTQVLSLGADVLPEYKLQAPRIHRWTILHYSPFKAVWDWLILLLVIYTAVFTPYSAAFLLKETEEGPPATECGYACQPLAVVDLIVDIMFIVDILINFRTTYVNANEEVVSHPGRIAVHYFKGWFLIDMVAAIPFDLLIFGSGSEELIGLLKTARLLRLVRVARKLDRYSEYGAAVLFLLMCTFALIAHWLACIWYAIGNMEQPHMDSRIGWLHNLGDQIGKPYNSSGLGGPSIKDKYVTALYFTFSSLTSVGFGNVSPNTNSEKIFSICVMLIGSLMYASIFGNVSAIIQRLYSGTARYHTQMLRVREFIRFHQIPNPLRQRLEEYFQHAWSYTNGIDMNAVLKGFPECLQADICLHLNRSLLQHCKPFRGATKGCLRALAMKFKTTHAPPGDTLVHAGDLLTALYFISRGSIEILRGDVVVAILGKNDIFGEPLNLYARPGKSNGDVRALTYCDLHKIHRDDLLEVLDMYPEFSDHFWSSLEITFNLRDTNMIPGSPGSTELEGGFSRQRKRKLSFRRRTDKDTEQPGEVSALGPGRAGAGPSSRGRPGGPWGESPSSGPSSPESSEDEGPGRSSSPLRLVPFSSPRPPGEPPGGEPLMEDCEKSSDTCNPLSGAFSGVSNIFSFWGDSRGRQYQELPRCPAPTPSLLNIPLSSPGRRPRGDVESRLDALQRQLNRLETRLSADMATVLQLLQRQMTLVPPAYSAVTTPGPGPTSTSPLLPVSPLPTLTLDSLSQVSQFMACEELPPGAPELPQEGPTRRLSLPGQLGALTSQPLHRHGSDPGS", "test": "Inhibition of human ERG"}, "[14]": {"test": "Clearance in Sprague-Dawley rat at 3 mg/kg, iv measured up to 24 hrs by LC-MS/MS analysis", "assay_type": "ADME, organism-based", "conditions": "in vivo"}, "[15]": {"test": "Apparent volume of distribution in Sprague-Dawley rat at 3 mg/kg, iv measured up to 24 hrs by LC-MS/MS analysis", "assay_type": "ADME, organism-based", "conditions": "in vivo, read-out: Vz"}, "[16]": {"test": "AUCt in Sprague-Dawley rat at 3 mg/kg, iv measured up to 24 hrs by LC-MS/MS analysis", "assay_type": "ADME, organism-based", "parameters": "route intravenous, dose 3 mg/kg, time <=24", "conditions": "in vivo"}, "[17]": {"test": "Tmax in Sprague-Dawley rat at 10 mg/kg, po measured up to 24 hrs by LC-MS/MS analysis", "assay_type": "ADME, organism-based", "conditions": "in vivo"}, "[18]": {"test": "AUCt in Sprague-Dawley rat at 10 mg/kg, po measured up to 24 hrs by LC-MS/MS analysis", "assay_type": "ADME, organism-based", "parameters": "route oral, dose 10 mg/kg, time <=24", "conditions": "in vivo"}, "[19]": {"test": "Oral bioavailability in Sprague-Dawley rat at 10 mg/kg measured up to 24 hrs by LC-MS/MS analysis", "assay_type": "ADME, organism-based", "conditions": "in vivo"}, "MV4-11 [20]": {"test_system": "MV4-11", "test": "Antitumor activity against human MV4-11 cells xenografted in BALB/c nude mouse assessed as tumor growth inhibition by measuring T/C ratio at 20 mg/kg, ip administered every two days for 14 days relative to control", "assay_type": "functional", "conditions": "time 14 day"}, "[21]": {"test": "Toxicity in BALB/c nude mouse xenografted with human MV4-11 cells assessed as effect on heart at 60 mg/kg, po administered every two days for 14 days by hematoxyin-eosin staining based analysis", "assay_type": "organism-based", "conditions": "in vivo, 336 h, time 14 day"}, "[22]": {"test": "Toxicity in BALB/c nude mouse xenografted with human MV4-11 cells assessed as effect on heart at 20 mg/kg, ip administered every two days for 14 days by hematoxyin-eosin staining based analysis", "assay_type": "organism-based", "conditions": "in vivo, 336 h, time 14 day"}}, "note": "Activity calls are given as the source filed them. The rule behind the calls is not given here.", "data": [{"compound": "CC(=O)c1ccc(S(=O)(=O)c2c(C)c(C(=O)O)n(CCCOc3cc(C)c(Cl)c(C)c3)c2C)cc1", "values": [{"measurement": "Kd", "setting": "Bcl-2-like protein 2", "value": "> 10", "unit": "µM"}, {"measurement": "Papp at 4 h", "setting": "[1]", "value": 52.6, "unit": "×10⁻⁶ cm/s"}, {"measurement": "solubility", "setting": "[2]", "value": 32.3, "unit": "µg/mL"}, {"measurement": "inhibition", "setting": "[3]", "value": 10, "unit": "%"}, {"measurement": "Kd", "setting": "[4]", "value": "> 10", "unit": "µM"}, {"measurement": "Selectivity ratio", "setting": "Homo sapiens", "value": "> 40000"}, {"measurement": "IC50", "setting": "NCI-H929 [5]", "value": 0.36, "unit": "µM"}, {"measurement": "IC50", "setting": "MV4-11 [6]", "value": 0.7, "unit": "µM"}, {"measurement": "IC50", "setting": "NCI-H23", "value": 3.02, "unit": "µM"}, {"measurement": "inhibition", "setting": "[7]", "value": "Dose-Dependent Effect"}, {"measurement": "Activity", "setting": "NCI-H929 [8]", "value": "Dose-Dependent Effect"}, {"measurement": "Activity", "setting": "NCI-H929 [9]", "value": "Dose-Dependent Effect"}, {"measurement": "Activity", "setting": "K562", "value": "inactive"}, {"measurement": "inhibition at 20 min, 10 µM", "setting": "CYP1A2", "value": 19.3, "unit": "%"}, {"measurement": "inhibition at 20 min, 10 µM", "setting": "CYP3A4", "value": 29.4, "unit": "%"}, {"measurement": "remaining at 2 h", "setting": "[10]", "value": 100, "unit": "%"}, {"measurement": "microsomal CLint", "setting": "[11]", "value": 67.5, "unit": "µL/min/mg"}, {"measurement": "remaining at 0.5 h", "setting": "[12]", "value": 64, "unit": "%"}, {"measurement": "Papp A→B", "setting": "P-gp", "value": 3.62, "unit": "×10⁻⁶ cm/s"}, {"measurement": "IC50", "setting": "[13]", "value": "> 30", "unit": "µM"}, {"measurement": "clearance", "setting": "[14]", "value": 15.2, "unit": "mL/min/kg"}, {"measurement": "Vd", "setting": "[15]", "value": 3.08, "unit": "L/kg"}, {"measurement": "AUC(0-t) at 24 h", "setting": "[16]", "value": 3290, "unit": "ng·h/mL"}, {"measurement": "Tmax", "setting": "[17]", "value": 30, "unit": "min"}, {"measurement": "AUC(0-t) at 24 h", "setting": "[18]", "value": 4530, "unit": "ng·h/mL"}, {"measurement": "bioavailability", "setting": "[19]", "value": 41.3, "unit": "%"}, {"measurement": "T/C", "setting": "MV4-11 [20]", "value": 5.52, "unit": "%"}, {"measurement": "Activity", "setting": "[21]", "value": "Non-Toxic"}, {"measurement": "Activity", "setting": "[22]", "value": "Non-Toxic"}]}]}
